Measured values: a melting point compilation (Tetko et al.; mined from patent text by program, amines drawn as free bases though some values may be those of a salt)

Structure (SMILES) | melting point [°C]
Cc1ncccc1-c1nc(C(F)(F)F)cn1-c1ccc(S(N)(=O)=O)cc1 | 235 to 237
CCCCS(=O)(=O)NC(=O)N1CC1C#N (centres undefined) | 80 to 85
COP(=O)(Nc1cc(C(C)C)ccc1N1CCOCC1)OC | 97 to 98
COC(=O)c1ccc(OC(=O)CCCCCCCCC(=O)Oc2ccc(C(=O)OC)cc2)cc1 | 110
CS(=O)(=O)c1ccc(C=C2/C(=N/O)CCc3ccccc32)cc1 | 165 to 166
CC(=Cc1ccc(C(=O)O)cc1)[N+](=O)[O-] | 212 to 214
COc1cccc(OC)c1C(=O)P1(=O)Oc2ccccc2-c2ccccc21 (centres undefined) | 96 to 98
O=C1C(=Cc2cccs2)CCc2cc(OCCc3c[nH]cn3)ccc21 | 60 to 63
COC(=O)c1cccc(C=C(C)[N+](=O)[O-])c1O | 119 to 121
COc1cc2c(cc1-c1cccnc1)-c1c(-c3cncs3)c3c(n1CC2)C(=O)N(C(C)(C)C)CCCC3 | 227 to 229
O=c1oc2c(c(O)c1C(c1cc(NS(=O)(=O)c3cccc4cccnc34)cc(NS(=O)(=O)c3cccc4cccnc34)c1)C1CC1)CCCCCC2 (centres undefined) | 139 to 145
CCOc1cccnc1CO | 74.5 to 76
CC(=O)Nc1ccc(S(=O)(=O)Nc2ccn(C3CCCCC3)c(=O)n2)cc1 | 219 to 234
Cc1cc(OCCC[Si](C)(C)C)c(Cl)cc1[N+](=O)[O-] | 66 to 68
CC(=O)OC1(C(C)=O)CCC2C3C(OS(C)(=O)=O)C(Cl)C4=CC(=O)OCC4(C)C3CCC21C (centres undefined) | 222 to 226
O=C(CCCCCNC(=O)[C@H](Cc1c[nH]c2ccccc12)NC(=O)CCCc1ccccc1)NO | 106 to 108
Cc1ccc(C2CCN(C[C@H](O)COc3cccc4oc(S(=O)(=O)N(C)C)cc34)CC2)cc1C | 146 to 148
O=C1OCCN1c1ccc(NCC(O)CO)c([N+](=O)[O-])c1 (centres undefined) | 150
Cc1c[nH]n(Cc2ccc(Cl)c(Cl)c2)c1=O | 156
Cn1ncnc1COc1ccc2nnc(-c3ccccc3)n2n1 | 254

Structure (SMILES) | melting point [°C]
COC(=O)c1ncoc1C | 46.5 to 47
CC(=O)Nc1nc(CCc2ccc(N)cc2)cs1 | 102 to 104
CS(=O)(=O)c1ccc(COc2cc(C=C3SC(=S)N(CC(=O)O)C3=O)ccc2OCc2ccccc2)cc1 | 207 to 211
COc1ccccc1N1CCN(CCCNC(=O)Cc2cccc3c(=O)c(C)c(-c4ccccc4)oc23)CC1 | 137 to 140
CC(C)(C)OC(=O)Nc1ccc(-c2cccc(F)c2F)cc1N | 78
CC(=O)C=Cc1c(Cl)nc(C)c2c1CCCC2 | 90
O=C(CC1c2cc(Cl)ccc2S(=O)(=O)N1c1ccccc1)NO (centres undefined) | 192 to 194
CCCCNC(=O)NS(=O)(=O)c1c(C(=O)OCC)cnn1-c1ccccn1 | 180 to 181
CC#CCOc1ccc(S(=O)[C@@H](C(=O)NO)c2ccc(OC)cc2)cc1 (some centres undefined) | 134
COC(=O)c1nnc2n1-c1ccc(Cl)cc1C(c1ccccc1)=NC2 | 216 to 217
CCCCCCCCCCc1ccnc(C(=O)NCC(=O)OCC)c1 | 29 to 30
COC(=O)COc1ccc([N+](=O)[O-])c(F)c1 | 93 to 94
CCOP(=O)(CNCc1ccnc(-c2cc(OC)c(O)c(OC)c2)c1)OCC | 124 to 126
CC(=O)c1ccc(N2Cc3ccccc3C2=O)cc1 | 235 to 237
O=[N+]([O-])c1ccc(OC23CC4CC(CC(C4)C2)C3)cc1 | 132 to 134
Cc1ccc(-c2ccc3c(c2)C=C(C(=O)Nc2ccc(CN4CCCCC4)cc2)CC(C)O3)cc1 (centres undefined) | 175 to 176
CC(=O)N1CCc2ccc(NS(=O)(=O)c3ccccc3)cc2C1 | 180 to 182
Cc1ccc(CC2CCN(C(=O)CNc3ccc(NS(C)(=O)=O)cc3)CC2)cc1 | 133 to 135
CCOCc1nc2c(N)nc3ccccc3c2n1CCCCS(=O)(=O)NC1CCCCC1 | 197 to 198
